Measurements as given in US11155551B2, “Nicotinic acetylcholine receptor silent agonists” (University of Florida Research Foundation, Inc., priority 2015, dated 2021).

How the values were obtained:
[1] = target: T1, human α7 nAChR (Homo sapiens, UniProt P36544); assay: Two-electrode voltage clamping of human α7 nAChR expressed in Xenopus oocytes (net-charge / peak current relative to 60 μM ACh); assay type: cell-based; details: for Potentiated response: 30 μM test compound + 10 μM PNU-120596 co-application; for Potentiated response / Relative response: relative to 60 μM ACh control, mean ± SEM, N ≥ 4; for Relative response: net-charge response to 30 μM test compound alone; for functional classification at α7 nAChR: 30 μM alone and with 10 μM PNU-120596, partial agonist = net charge > 1/10th ACh control; for PNU Response: 30 μM compound + 10 μM PNU-120596, relative to 60 μM ACh controls (n ≥ 4); for Net Charge / Peak current: 30 μM compound alone, relative to 60 μM ACh controls (n ≥ 4); for Ratio (peak current to net charge): 30 μM, normalized peak current / normalized net charge; for Estimated Rank efficacy / Estimated Rank potency: rank among six partial agonists; for Estimated Rank potency: from peak-current-to-net-charge ratio; for PAM-dependent currents relative to ACh: co-application with PNU-120596, meta-substituted series; for PAM-dependent response compared to the parent diEPP: co-application with PNU-120596
T1 construct: expressed in transfected cells; host or cells: Xenopus oocytes
Protocol: Electrophysiology: The panel of compounds synthesized was assayed using human α7 nAChR expressed in Xenopus oocytes and two-electrode voltage clamping. The partial agonism activity was evaluated, quantified as net-charge for 30 μM applications of compounds, measured relative to the control response to applications of 60 μM ACh. The induction of PAM-sensitive desensitization was detected as the net-charge responses when compounds were co-applied with the PAM PNU-120596 (30 μM compound+10 μM PNU-120596), measured relative to responses to 60 μM ACh applied alone. […] It is a unique property of α7 orthosteric agonist-induced currents that they vary systematically in the relationship between peak current and net charge as a function of the effective concentration applied (Papke & Papke (2002) Br. J. Pharm. 137: 49-61; Papke & Thinschmidt (1998) Neurosci. Let. 256: 163-166). This was due to the concentration-dependent desensitization of the receptors, which is likely to be associated with high levels of agonist binding site occupancy (Williams et al., (2011) J. Gen. Physiol. 137: 369-384) and is observed even when agonists are rapidly applied to small cells (Williams et al., (2012) Mol. Pharmacol. 82: 746-759) or acutely dissociated neurons (Uteshev et al., (2002) Brain Res. 948: 33-46). The control ACh concentration used for these experiments is roughly the EC80 for the net-charge responses.
By normalizing both the peak currents and net-charge measurements of the drug responses at the probe concentration of 30 μM (FIG. 3B) to those of the ACh control, the relationship between the probe concentration and the EC for each of the drugs was estimated (Papke, R. L. (2005) Life Sci.). At a concentration where the ratio of the normalized measures equaled one, the drug would be at the same effective concentration as 60 μM ACh.
Electrophysiology: New compounds were assayed for activity with the α7 nAChR expressed in Xenopus oocytes using two-electrode voltage clamping as previously described in Papke et al., (2014) J. Pharmacol. Experimental Therap. 350: 665-680, incorporated herein by reference in its entirety, and compared to responses evoked by 60 μM Ach (FIGS. 5 and 6). The compound set was assayed at a concentration of 30 μM to provide a standard comparison benchmark.
Based on earlier experience this concentration is high enough to provide an observable response and low enough to avoid possible complications such as channel block. The net-charge response for each compound application is reported relative to those for ACh control applications. Data were expressed as the mean ±S.E.M. from at least four oocytes for each experiment and were plotted by Kaleidagraph (Abelbeck Software, Reading, Pa.).

T1 sequence (P36544 23-502): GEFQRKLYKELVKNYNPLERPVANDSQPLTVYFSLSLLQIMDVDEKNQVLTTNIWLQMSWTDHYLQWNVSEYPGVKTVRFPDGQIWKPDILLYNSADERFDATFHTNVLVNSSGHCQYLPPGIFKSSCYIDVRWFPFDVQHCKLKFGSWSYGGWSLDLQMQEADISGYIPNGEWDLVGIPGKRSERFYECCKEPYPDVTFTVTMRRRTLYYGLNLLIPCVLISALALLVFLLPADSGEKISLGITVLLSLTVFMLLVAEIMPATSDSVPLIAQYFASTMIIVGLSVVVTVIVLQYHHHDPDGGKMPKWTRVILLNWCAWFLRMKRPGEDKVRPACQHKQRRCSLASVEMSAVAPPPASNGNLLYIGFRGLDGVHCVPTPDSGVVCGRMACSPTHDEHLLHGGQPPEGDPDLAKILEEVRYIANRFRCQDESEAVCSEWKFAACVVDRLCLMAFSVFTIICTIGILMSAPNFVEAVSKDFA

| SMILES | Potentiated response [1] | Relative response [1] | functional classification at α7 nAChR [1] | further results |
| --- | --- | --- | --- | --- |
| CCN1CCN(c2ccc(OC)cc2)CC1 | – | – | – | melting point: 56.6 to 57.8 °C |
| CCN1CCN(c2cccc(O)c2)CC1 | – | – | – | melting point: 150.3 to 151.6 °C |
| CCN1CCN(c2ccc3ccccc3c2)CC1 | – | – | – | melting point: 69.1 to 70 °C |
| CCN1CCN(c2ccc(Br)cc2)CC1 | – | – | – | melting point: 85 to 85.5 °C |
| CCN1CCN(c2cccc(Cl)c2)CC1 [Compound 1f, 1-(3-chlorophenyl)-4-ethylpiperazine] | 0.1 ± 0.1 | 0.009 ± 0.008 | – | – |
| CCN1CCN(c2cccc(Br)c2)CC1 [Compound 1p, 1-(3-bromophenyl)-4-ethylpiperazine] | 6.9±2.4 | 0.000 ± 0.003 | modest silent agonism | response relative to diEPP ([1]; PAM co-application response): approximately 5 fold; response relative to its corresponding quaternary salt 2p ([1]; PAM co-application response): 0.69 fold |
| CC[N+]1(CC)CCN(c2ccc(C#N)cc2)CC1.[I-] [Compound 2b, 4-(4-cyanophenyl)-1,1-diethylpiperazin-1-ium iodide] | 68.0 ± 25.4 | 0.234 ± 0.024 | partial agonists | PNU Response [1]: 68 ± 25; Net Charge [1]: 0.23 ± 0.02; Peak current [1]: 0.10 ± 0.01; Ratio (peak current to net charge) [1]: 0.43; Estimated Rank efficacy [1]: 3; Estimated Rank potency [1]: 6 |
| CC[N+]1(CC)CCN(c2ccc(OC)cc2)CC1.[I-] [Compound 2c, 1,1-diethyl-4-(4-methoxyphenyl)piperazin-1-ium iodide] | 11.6 ± 0.3 | 0.063 ± 0.014 | candidate silent agonists | – |
| CC[N+]1(CC)CCN(c2ccc(Cl)cc2)CC1.[I-] [Compound 2e, 4-(4-chlorophenyl)-1,1-diethylpiperazin-1-ium iodide] | 18.3 ± 6.2 | 0.234 ± 0.048 | partial agonists | PNU Response [1]: 18 ± 6; Net Charge [1]: 0.23 ± 0.05; Peak current [1]: 0.17 ± 0.02; Ratio (peak current to net charge) [1]: 0.71; Estimated Rank efficacy [1]: 5; Estimated Rank potency [1]: 1 |
| CC[N+]1(CC)CCN(c2cccc(Cl)c2)CC1.[I-] [Compound 2f, 4-(3-chlorophenyl)-1,1-diethylpiperazin-1-ium iodide] | 4.2 ± 1.0 | 0.020 ± 0.003 | candidate silent agonists | PAM-dependent currents relative to ACh [1]: 4.23 fold |
| CC[N+]1(CC)CCN(c2ccccc2C)CC1.[I-] [Compound 2h, 1,1-diethyl-4-o-tolylpiperazin-1-ium iodide] | 16.4 ± 2.4 | 0.319 ± 0.066 | partial agonists | PNU Response [1]: 16 ± 2; Net Charge [1]: 0.32 ± 0.07; Peak current [1]: 0.15 ± 0.02; Ratio (peak current to net charge) [1]: 0.46; Estimated Rank efficacy [1]: 1; Estimated Rank potency [1]: 5 |
| CC[N+]1(CC)CCN(c2cccc(C#N)c2)CC1.[I-] [Compound 2i, 4-(3-cyanophenyl)-1,1-diethylpiperazin-1-ium iodide] | 1.5 ± 0.7 | 0.022 ± 0.024 | no significant activity as either partial agonists or as silent agonists | PAM-dependent response compared to the parent diEPP [1]: equivalent |
| CC[N+]1(CC)CCN(c2ccccc2Cl)CC1.[I-] [Compound 2j, 4-(2-chlorophenyl)-1,1-diethylpiperazin-1-ium iodide] | 36.6 ± 6.1 | 0.367 ± 0.054 | partial agonists | PNU Response [1]: 37 ± 6; Net Charge [1]: 0.37 ± 0.05; Peak current [1]: 0.23 ± 0.03; Ratio (peak current to net charge) [1]: 0.63; Estimated Rank efficacy [1]: 2; Estimated Rank potency [1]: 4 |
| CC[N+]1(CC)CCN(c2cccc(O)c2)CC1.[I-] [Compound 2k, 1,1-diethyl-4-(3-hydroxyphenyl)piperazin-1-ium iodide] | 31.4 ± 5.1 | 0.283 ± 0.013 | partial agonists | PNU Response [1]: 31 ± 5; Net Charge [1]: 0.28 ± 0.02; Peak current [1]: 0.19 ± 0.02; Ratio (peak current to net charge) [1]: 0.67; Estimated Rank efficacy [1]: 4; Estimated Rank potency [1]: 3 |
| CC[N+]1(CC)CCN(c2ccc(OC)cc2OC)CC1.[I-] [Compound 2l, 4-(2,4-dimethoxyphenyl)-1,1-diethylpiperazin-1-ium iodide] | 1.1 ± 0.1 | 0.014 ± 0.009 | not a partial agonist | – |
| CC[N+]1(CC)CCN(c2ccc3ccccc3c2)CC1.[I-] [Compound 2m, 1,1-diethyl-4-(naphthalen-2-yl)piperazin-1-ium iodide] | 15.9 ± 2.3 | 0.143 ± 0.018 | partial agonist | PNU Response [1]: 16 ± 2; Net Charge [1]: 0.14 ± 0.02; Peak current [1]: 0.10 ± 0.02; Ratio (peak current to net charge) [1]: 0.71; Estimated Rank efficacy [1]: 6; Estimated Rank potency [1]: 1 |
| CC[N+]1(CC)CCN(c2cccc(C(F)(F)F)c2)CC1.[I-] [Compound 2o, 1,1-diethyl-4-(3-(trifluoromethyl)phenyl)piperazin-1-ium iodide] | 3.1 ± 2.1 | 0.000 ± 0.002 | candidate silent agonists | – |
| CC[N+]1(CC)CCN(c2ccc(Br)cc2)CC1.[I-] [Compound 2q, 4-(4-bromophenyl)-1,1-diethylpiperazin-1-ium iodide] | 12.3 ± 3.5 | 0.270 ± 0.017 | – | – |
| CC[N+]1(CC)CCN(c2ccc(F)cc2)CC1.[I-] [Compound 2r, 1,1-diethyl-4-(4-fluorophenyl)piperazin-1-ium iodide] | 22.9 ± 5.8 | 0.010 ± 0.002 | candidate silent agonists | – |
| CC[N+]1(CC)CCN(c2cccc(F)c2)CC1.[I-] [Compound 2s, 1,1-diethyl-4-(3-fluorophenyl)piperazin-1-ium iodide] | 0.2 ± 0.1 | 0.061 ± 0.089 | no significant activity as either partial agonists or as silent agonists | PAM-dependent currents relative to ACh [1]: 0.2 fold |
| CC[N+]1(CC)CCN(c2ccc(C(N)=O)cc2)CC1.[I-] [Compound 2t, 4-(4-carbamoylphenyl)-1,1-diethylpiperazin-1-ium iodide] | 43.9 ± 8.5 | 0.065 ± 0.009 | candidate silent agonists | – |
| CC[N+]1(CC)CCN(c2cccc(C(N)=O)c2)CC1.[I-] [Compound 2u, 4-(3-carbamoylphenyl)-1,1-diethylpiperazin-1-ium iodide] | 50.7 ± 8.5 | 0.056 ± 0.022 | candidate silent agonists | – |
| CC[N+]1(CC)CCC(Nc2ccccc2)CC1.[I-] [Compound 6, 1,1-diethyl-4-(phenylamino)piperidinium iodide] | 5.6 ± 2.1 | 0.002 ± 0.004 | no channel activation within experimental error | PAM-dependent response compared to the parent diEPP [1]: enhanced PAM-dependent responses |
| CC[N+]1(CC)CCC(=Cc2ccccc2)CC1.[I-] [Compound 8, 4-benzylidene-1,1-diethylpiperidinium iodide] | 9.9 ± 3.1 | 0.071 ± 0.027 | – | PAM-dependent response compared to the parent diEPP [1]: enhanced PAM-dependent responses |
